Patent US20230382888A1, “HDAC INHIBITOR SOLID STATE FORMS” (Viracta Subsidiary, Inc., priority 2020, published 2023)
“Also recorded” adds a separate entry of the source.

What was measured:
Type in all cases: physicochemical
[1] = Competitive slurries in different water activity (thermodynamic stability)
Experimental: Competitive slurries of the anhydrous and hydrated forms in different water activity at 50° C. and 5° C. were used to determine the thermodynamic stability relationships.

[2] = Gravimetric vapour sorption (GVS)
Experimental: Sorption isotherms were obtained using a SMS DVS Intrinsic moisture sorption analyser, controlled by DVS Intrinsic Control software. The sample temperature was maintained at 25° C. by the instrument controls. The humidity was controlled by mixing streams of dry and wet nitrogen, with a total flow rate of 200 ml/min. The relative humidity was measured by a calibrated Rotronic probe (dynamic range of 1.0 — 100% RH), located near the sample. The weight change, (mass relaxation) of the sample as a function of % RH was constantly monitored by a microbalance (accuracy ±0.005 mg). Typically, 20-30 mg of sample was placed in a tared mesh stainless steel basket under ambient conditions. The sample was loaded and unloaded at 40% RH and 25° C. (typical room conditions). A moisture sorption isotherm was performed as outlined below (2 scans per complete cycle). The standard isotherm was performed at 25° C. at 10% RH intervals over a 0-90% RH range. Typically, a double cycle (4 scans) was carried out. Data analysis was carried out within Microsoft Excel using the DVS Analysis Suite. [table]

[3] = Thermodynamic aqueous solubility; conditions: for pH of saturated solution: water, after 24 hours equilibration at 25° C.
Experimental: Aqueous solubility was determined by suspending sufficient compound in 0.5 ml deionized water to give a maximum final concentration of 40 mg/ml of the parent free-form of the compound. The suspension was equilibrated at 25° C., on a Heidolph plate shaker set to 750 rpm for 24 hours. After equilibration, the appearance was noted and the pH of the saturated solution was measured. Samples forming suspensions were centrifuged for 4 min at 13,500 rpm. Samples were then filtered through a glass fiber C filter (particle retention 1.2 μm), before dilution with H2 O as appropriate. Quantitation was by HPLC (see Table 2 for parameters) with reference to a standard solution of approximately 0.15 mg/ml in DMSO. Different volumes of the standard, diluted and undiluted sample solutions were injected. The solubility was calculated using the peak areas determined by integration of the peak found at the same retention time as the principal peak in the standard injection. Analysis was performed on an Agilent HP1100/Infinity II 1260 series system equipped with a diode array detector and using OpenLAB software.

[4] = Static storage stability at elevated temperature/humidity (XRPD, HPLC)
[5] = Intrinsic dissolution rate (IDR) in FaSSGF

What does the source list for O=C(NO)c1cnc(N2C[C@@H]3[C@H](C2)[C@H]3NCc2ccc3cc(F)ccc3n2)nc1 [Mesylate Form 1, N-hydroxy 2-{6-[(6-fluoro-quinolin-2-ylmethyl)-amino]-3-aza-bicyclo[3.1.0]hex-3-yl}pyrimidine-5-carboxamide]?
Water activity (aw) up to which the form is the most stable ([1]; competitive slurries at 50° C.): 0.6; Water activity (aw) up to which the form is the most stable ([1]; competitive slurries at ° C. (so in the source)): ≥ 0.3; Reversible water uptake by GVS ([2]; 0-90% RH, 25° C.): 0.35% reversible uptake from 0-90%; Hygroscopicity by GVS ([2]; 25° C.): Slightly hygroscopic; XRPD post-GVS (solid form) ([2]; residue after GVS): no change; also recorded: XRPD remains unchanged; solubility at 24 h ([3]; thermodynamic from solid, deionized water, 25° C., 24 hours, maximum final concentration 40 mg/ml of parent free-form): 40 mg/mL; pH of saturated solution [3]: (pH = 3.2); pH of saturated solution ([3]; listed as mesylate): ~3.2; HPLC purity after static storage ([4]; 25° C./97% RH, 1 week): no significant drop in purity; HPLC purity after static storage ([4]; 25° C./97% RH, 14 weeks): 93.5%; Solid form by XRPD after static storage ([4]; 25° C./97% RH, 14 weeks): Mesylate Form 1; Solid form by XRPD after static storage ([4]; 25° C./97% RH, 7 days (1 week)): unchanged; also recorded: No change, Mesylate Form 1; HPLC purity after static storage ([4]; 40° C./75% RH, 1 week): no significant drop in purity; HPLC purity after static storage ([4]; 40° C./75% RH, 14 weeks): Form 2 (94.7% purity); Solid form by XRPD after static storage ([4]; 40° C./75% RH, 14 weeks): Mixture of Mesylate Form 1 and Mesylate; Solid form by XRPD after static storage ([4]; 40° C./75% RH, 7 days (1 week)): unchanged; also recorded: No change, Mesylate Form 1; IDR relative to free base form A ([5]; FaSSGF): ~8 times; IDR in FaSSGF ([5]; Fasted State Simulated Gastric Fluid): 9.1 mg/min/cm^2
